# Reference: patent publication US11414488B2, “Methods for treating cancer” (BicycleRD Limited, priority 2019, dated 2022)
# Where two headings read alike, the source gives them in different places.
# Key:
# [1] = Tolerability and deaths in E0771 study (Example 3); type: in vivo, Mouse; settings: single agent paclitaxel 15 mg/kg; considered non-specific deaths, treatment not completely ruled out
# Description: Animals euthanized during the same period for other causes (sampling, accidental trauma, etc.) are excluded from this calculation. […] (Group toxicity parameter)
# [2] = system: orthotopic E0771 murine mammary carcinoma; settings: for anti-tumor activity (in words): BT17BDC-18 at 6.2 mg/kg or 4.8 mg/kg, anti-mPD-1 10 mg/kg, paclitaxel 15 mg/kg
# Description: The purpose of this study was to evaluate the anti-cancer activity of BT17BDC-18 alone and in combination with anti-mPD-1 against established orthotopic E0771 murine mammary carcinoma in female C57BL/6 mice.
# All mice were sorted into study groups based on caliper estimation of tumor burden. The mice were distributed to ensure that the mean tumor burden for all groups was within 10% of the overall mean tumor burden for the study population.
# All animals weighed at least 16.6 g at the initiation of therapy. […] A tumor burden of 2000 mm^3, was chosen for evaluation of efficacy by time to progression (time to euthanasia/death).
# Treatment-related weight change—This is a group endpoint calculated from the group mean body weights. It is calculated differently for specific circumstances as follows: • If (at any point between the first day of treatment and two weeks after the final treatment) the mean group body weight decreases by more than 2%, the maximum weight loss is reported, even if body weight eventually rebounded during treatment to a net weight gain. […] To assess the contribution of test agents to weight loss, Net Treatment Related Weight Loss may be used. […] When this occurs, net weight loss is calculated by normalizing for tumor burden. We do this by constructing a plot of control group mean tumor burden vs control group mean weight loss, using all of the weight data available for the control group. […] This value is then subtracted from the mean weight loss in the treated group to generate the net weight loss for the treated group on that day. The calculated net weight loss is then used to estimate the tolerance to the drug.
# Time to Progression (TP)—Time to progression is a surrogate for lifespan, time on study, or lifespan. It is used for studies that involve IACUC mandated euthanasia of animals for excessive tumor burdens (even if the animals otherwise appear normal). The mandated tumor burden limit is tumor model dependent. TP data is analyzed by Kaplan Meier methods just as traditional life span data. The Time to Progression for an individual animal is the number of days between initiation of treatment and the death or required euthanasia of that animal. […] This puts all animals on the same footing, and removes the impact of possibly delayed euthanasia (which may occur for sampling, or weekends and holidays). Animals euthanized for scheduled sampling or other causes unrelated to disease progression or therapy are excluded from this calculation. The median Time to Progression for a group is used to calculate the % Increase in Time to Progression (% ITP).
# % Increase in Time to Progression (% ITP)—% ITP is a group endpoint.
# Complete Regression (CR)—An animal is credited a complete regression if its tumor burden is reduced to an immeasurable volume at any point after the first treatment. Our convention is to record any tumor measurement less than 5 mm as a “0.” The CR must be maintained for at least 2 consecutive measurements. This is in keeping with the convention of the NCI and reflects the inherent and unacceptably high mechanical error in such measurements in addition to the uncertain biology of what is measured at those small sizes.
# [3] = BT17BDC-18 6.2 mg/kg IV Q7Dx4, anti-mPD-1 10 mg/kg IP, paclitaxel 15 mg/kg IV Q7Dx4, alone or combined
smiles,measurement,setting,value
CC(=O)O[C@H]1C(=O)[C@@]2(C)[C@H]([C@H](OC(=O)c3ccccc3)[C@]3(O)C[C@H](OC(=O)[C@H](O)[C@@H](NC(=O)c4ccccc4)c4ccccc4)C(C)=C1C3(C)C)[C@]1(OC(C)=O)CO[C@@H]1C[C@@H]2O [Paclitaxel],deaths in group,[1],two
same,% increase in time to progression,[2]; [3],17.9%
same,Day 36 median ΔT/ΔC,[2]; [3],94%
same,increase in time to progression,[2]; [3],4.0 days
same,anti-tumor activity (in words),[2],Poor response
same,anti-tumor activity (in words),[2]; listed as paclitaxel,mildly active
